According to patent US5597899A, “Tumor necrosis factor muteins” (Hoffmann-La Roche Inc., priority 1993, dated 1997):

Legend:
human TNFR-p55 = assay: Solid phase radioligand competition binding assay, E. coli lysates, TNFR-p55; details: for Dilution of E. coli Lysate for 50% Inhibition of 125I-TNFα Binding (ID50) TNFR-p55: 10-fold serial dilutions 10^-2 to 10^-7, < = inhibition but below 50% at 1:100, << = no measurable inhibition at 1:100; for ID50 TNFR-p55 / ID50 TNFR-p75: ratio = 1 no receptor selectivity, > 1 TNFR-p55 selectivity, < 1 TNFR-p75 selectivity
Procedure: (§1) After 20 min incubation at room temperature 50 μl of 1M MgCl2, 20 μl of 5 mg/ml DNaseI, 50 μl of 5M NaCl and 50 μl of 10% NP-40 were added and the mixture was further incubated at room temperature for 15 min. 0.5 ml of the lysate clarified by centrifugation at 13'000 rpm for 5 min was subjected to ammonium sulfate precipitation (25%-70% cut). The 70% ammonium sulfat pellet was dissolved in 0.2 ml PBS and analyzed by sodium dodecyl sulfate polyacrylamide gel electrophoresis (SDS-PAGE) to confirm presence and approximate amount of the recombinant proteins.
TNFα was labelled by the Iodogen method (Pierce Chemical Company) to a specific activity of about 10-30 μCi/μg. The volume was 100 μl/well and each lysate dilution was assayed in duplicate or triplicate. After three hours at room temperature the wells were thoroughly washed with PBS and counted in a γ-counter. The results are given in Table 2 for lysates comprising the muteins indicated therein.

human TNFR-p75 = assay: Solid phase radioligand competition binding assay, E. coli lysates, TNFR-p75; details: 10-fold serial dilutions 10^-2 to 10^-7, < = inhibition but below 50% at 1:100, << = no measurable inhibition at 1:100
Procedure: as §1, with “10 ml suspensions of E. coli cells transformed and induced as described in Examples I and II were centrifuged at 4'000 rpm for 10 min and resuspended in 0.9 ml of lysis buffer (10 mM Tris-HCl pH 8.0, 5 mM EDTA, 2 mM PMSF, 10 mM benzamidine, 200 units/ml aprotinine and 0.1 mg/ml lysozyme). After” for “After”
96 well microtiter plates were coated with recombinant human […] TNFR-p75-hγ3 and TNFR-p55-hγ3 fusion proteins (extracellular portion of the receptor fused to the Fc part of human IgG3) at a concentration of 0.3 μg/ml and 0.1 μg/ml, respectively, in phosphate buffered saline (PBS, 100 μl/well, overnight at 4° C.) [Loetscher, H. et al. J. Biol. Chem. 266, 18324-18329 (1991); Lesslauer, W. et al. Eur. J. Immunol. 21, 2883-2886 (1991)]. After blocking with blocking buffer (50 mM Tris pH 7.4, 140 mM NaCl, 5 mM EDTA, 0.02% NAN3, 1% defatted milk powder) the microtiter plate was washed with PBS and incubated in blocking buffer containing 0.1% defatted milk powder with 10 ng/ml human wild-type ^125 I-TNFα and various dilutions of E. coli lysates ranging from 10^-2 to 10^-7 (10-fold serial dilutions). TNFα was labelled by the Iodogen method (Pierce Chemical Company) to a specific activity of about 10-30 μCi/μg. The volume was 100 μl/well and each lysate dilution was assayed in duplicate or triplicate. After three hours at room temperature the wells were thoroughly washed with PBS and counted in a γ-counter. The results are given in Table 2 for lysates comprising the muteins indicated therein.

Row | Substance | Dilution of E. coli Lysate for 50% Inhibition of 125I-TNFα Binding (ID50) TNFR-p55 (human TNFR-p55) | ID50 TNFR-p55 / ID50 TNFR-p75 (human TNFR-p55) | Dilution of E. coli Lysate for 50% Inhibition of 125I-TNFα Binding (ID50) TNFR-p75 (human TNFR-p75)
1 | Q67K: human TNFα mutein Q67K | 25,000 fold | 0.5 | 50,000 fold
2 | E146R: human TNFα mutein E146R | 6,670 fold | > 67 | < 100 fold
3 | A145Y: human TNFα mutein A145Y | 1,670 fold | 0.1 | 11,110 fold
4 | F144L: human TNFα mutein F144L | 5,000 fold | 1 | 5,000 fold
5 | R31N-R32T: human TNFα mutein R31N-R32T | 3,260 fold | > 32.6 | < 100 fold
6 | H73T: human TNFα mutein H73T | 2,000 fold | 1 | 2,000 fold
7 | N34E: human TNFα mutein N34E | 330 fold | > 3.3 | < 100 fold
8 | F144G: human TNFα mutein F144G | 2,500 fold | 1.2 | 2,000 fold
9 | I97Y: human TNFα mutein I97Y | 2,500 fold | 7.6 | 330 fold
10 | R32W-S86T: human TNFα mutein R32W-S86T | 3,330 fold | > 33.3 | < 100 fold
11 | N34R: human TNFα mutein N34R | < 100 fold | > 1 | < 100 fold
12 | N34I: human TNFα mutein N34I | 200 fold | > 2 | < 100 fold
13 | Q21S: human TNFα mutein Q21S | 2,500 fold | 1 | 2,500 fold
14 | N92R: human TNFα mutein N92R | 5,000 fold | 4 | 1,250 fold
15 | A145K: human TNFα mutein A145K | < 100 fold | < 0.05 | 1,820 fold
16 | N34T: human TNFα mutein N34T | 1,000 fold | > 10 | < 100 fold
17 | F144Y: human TNFα mutein F144Y | 2,860 fold | 1 | 2,860 fold
18 | L29S-S86T: human TNFα mutein L29S-S86T | 200 fold | > 2 | < 100 fold

Row | Substance | Dilution of E. coli Lysate for 50% Inhibition of 125I-TNFα Binding (ID50) TNFR-p55 (human TNFR-p55) | ID50 TNFR-p55 / ID50 TNFR-p75 (human TNFR-p55) | Dilution of E. coli Lysate for 50% Inhibition of 125I-TNFα Binding (ID50) TNFR-p75 (human TNFR-p75)
19 | R31E-S86T: human TNFα mutein R31E-S86T | 2,000 fold | > 20 | < 100 fold
20 | H73Q: human TNFα mutein H73Q | 10,000 fold | 1 | 10,000 fold
21 | Y87Q: human TNFα mutein Y87Q | < 100 fold | 1 | < 100 fold
22 | N19D: human TNFα mutein N19D | 5,000 fold | 1 | 5,000 fold
23 | R31E: human TNFα mutein R31E | 3,470 fold | 19.3 | 180 fold
24 | A145H: human TNFα mutein A145H | 330 fold | 0.2 | 1,670 fold
25 | F144D: human TNFα mutein F144D | 5,000 fold | 15.2 | 330 fold
26 | Y87G: human TNFα mutein Y87G | < 100 fold | 1 | < 100 fold
27 | N34M: human TNFα mutein N34M | < 100 fold | > 1 | < 100 fold
28 | A33T: human TNFα mutein A33T | 1,110 fold | 0.9 | 1,250 fold
29 | L29S-R32W: human TNFα mutein L29S-R32W | 5,000 fold | > 50 | < 100 fold
30 | N34C: human TNFα mutein N34C | 250 fold | > 2.5 | < 100 fold
31 | N34Q: human TNFα mutein N34Q | < 100 fold | > 1 | < 100 fold
32 | K65W: human TNFα mutein K65W | 500 fold | 0.2 | 3,330 fold
33 | Q67T: human TNFα mutein Q67T | 25,000 fold | 0.75 | 33,330 fold
34 | I97K: human TNFα mutein I97K | 143 fold | > 1.4 | < 100 fold
35 | K65A: human TNFα mutein K65A | 20,000 fold | 0.6 | 33,330 fold
36 | Q67Y: human TNFα mutein Q67Y | 20,000 fold | 0.6 | 33,330 fold
